Reference: US11248006B2, “Macrocyclic derivative of pyrazol[3,4-d]pyrimidin-3-one, pharmaceutical composition and use thereof” (SHANGHAI DE NOVO PHARMATECH CO., LTD., priority 2017, dated 2022)

target: Wee1 (Homo sapiens (Human), UniProt P30291); assay: Wee1 enzyme catalysis assay (ATP-Glo Max kinase luminescence detection kit); type: biochemical; conditions: Wee1 enzymatic activity, 10 μM ATP, Poly (Lys, Tyr) substrate, 30° C. for 50 minutes
Method: In the present disclosure, Wee1 enzyme catalysis assay was carried out using the ATP-Glo Max kinase luminescence detection kit (Promega). Kinase activity was assessed by quantitative detection of the amount of ATP retained in the solution following the kinase reaction. The luminescent signal in the assay is proportional to the amount of ATP and inversely proportional to the kinase activity. The concentration of the compound in the assay ranged from 0.5 nM to 30 μM. The compound was dissolved in 10% DMSO, and 5 μL of the solution was added to 50 μL of the reaction, and the concentration of DMSO in the final reaction was 1%. The reaction was carried out at 30° C. for 50 minutes. 40 mM trishydroxymetyl aminomethane, pH 7.4, 10 mM MgCl2, 0.1 mg/ml BSA, 2 mM DTT, 0.1 mg/ml Poly (Lys, Tyr) substrate, 10 μM ATP and Wee1 were contained in the reaction mixture. After the enzymatic reaction, 50 μL of ATP-Glo Max kinase luminescence detection assay solution (Promega) was added and incubated for 15 minutes at room temperature. The luminescent signal was measured using a microplate reader. In some assays, a known Wee1 inhibitor was added as a positive control. Luminance data was analyzed using Graphpad software. The difference between the luminescence intensity in the absence of Wee1 and the luminescence intensity in the presence of Wee1 was defined as 100% activity (Lut−Luc). Using the luminescence intensity signal (Lu) in the presence of the compound, the % activity was calculated as follows: % Activity={(Lut−Lu)/(Lut−Luc)}×100%, wherein, Lu=luminous intensity of the compound Non-linear regression analysis was employed to plot the dose-effect curve of % activity value and the corresponding concentrations for the series of compounds. The equation is Y=B+(TB)/1+10((Log EC50−X)×Hill Slope), Y=% activity, B=minimum activity percentage, T=maximum activity percentage, X=logarithm of compound and Hill slope=slope factor or Hill coefficient. The IC50 value was determined by the concentration of a compound that is required to obtain 50% of the maximum effect.

Chain of Wee1 (P30291 whole entry): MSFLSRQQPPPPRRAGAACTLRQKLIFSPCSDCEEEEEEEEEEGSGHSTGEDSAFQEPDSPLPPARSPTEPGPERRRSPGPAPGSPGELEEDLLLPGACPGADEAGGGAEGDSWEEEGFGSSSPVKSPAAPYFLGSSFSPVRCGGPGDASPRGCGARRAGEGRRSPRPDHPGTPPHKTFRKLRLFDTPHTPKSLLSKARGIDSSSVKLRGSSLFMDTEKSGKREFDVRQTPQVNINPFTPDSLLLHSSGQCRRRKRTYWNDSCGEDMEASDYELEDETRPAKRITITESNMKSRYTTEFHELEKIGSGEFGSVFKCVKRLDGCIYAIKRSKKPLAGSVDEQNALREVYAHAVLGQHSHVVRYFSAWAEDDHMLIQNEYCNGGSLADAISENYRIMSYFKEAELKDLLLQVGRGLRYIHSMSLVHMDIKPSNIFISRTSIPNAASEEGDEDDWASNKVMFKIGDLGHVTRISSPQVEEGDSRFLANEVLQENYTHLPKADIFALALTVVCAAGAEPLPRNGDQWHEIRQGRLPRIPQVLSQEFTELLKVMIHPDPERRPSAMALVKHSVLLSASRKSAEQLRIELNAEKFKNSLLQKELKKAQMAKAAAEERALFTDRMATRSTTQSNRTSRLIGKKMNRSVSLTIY

| SMILES | IC50 [nM] |
| --- | --- |
| CN1Cc2cc(Nc3ncc4c(=O)n5n(c4n3)-c3ccc4c(n3)N(CCCC/C=C/C5)C(=O)CO4)ccc2C2(CC2)C1 [Compound 3-2-1] | 21 |
| CN1Cc2cc(Nc3ncc4c(=O)n5n(c4n3)-c3ccc4c(n3)N(CCO4)C(=O)OC/C=C\C5)ccc2C2(CC2)C1 [Compound 8-3-1] | 16.3 |
| CN1Cc2cc(Nc3ncc4c(=O)n5n(c4n3)-c3cccc(n3)N(C)CCC/C=C\C5)ccc2C(C)(C)C1 [Compound 9-1-1] | 11.8 |
| CN1CCCC(n2ccc3cc(Nc4ncc5c(=O)n6n(c5n4)-c4ccc5c(n4)N(CCC/C=C\C6)C(=O)CO5)ccc32)C1 (stereo not shown) [Compound 3-7-2] | 18.2 |
| CC(=O)N1CCCCC=CCn2c(=O)c3cnc(Nc4ccc(N5CCN(C)CC5)cc4)nc3n2-c2cccc1n2 [Compound 2-1-2] | 62.5 |
| CN1Cc2cc(Nc3ncc4c(=O)n5n(c4n3)-c3ccc4c(n3)N(CCC/C=C\C5)C(=O)CO4)ccc2C1=O [Compound 3-6-1] | 16.2 |
| CC(C)N1CCC(n2ccc3cc(Nc4ncc5c(=O)n6n(c5n4)-c4ccc5c(n4)N(CCC/C=C\C6)C(=O)CO5)ccc32)CC1 [Compound 3-7-15] | 7.9 |
| CN1CCN(c2ccc(Nc3ncc4c(=O)n5n(c4n3)-c3ccc4c(n3)N(CCC/C=C\C5)C(=O)CO4)cc2F)CC1 [Compound 3-3-8] | 7.6 |
| CS(=O)(=O)CCN1CCC(n2ccc3cc(Nc4ncc5c(=O)n6n(c5n4)-c4ccc5c(n4)N(CCC/C=C\C6)C(=O)CO5)ccc32)CC1 [Compound 3-7-9] | 9.2 |
| COc1cc(Nc2ncc3c(=O)n4n(c3n2)-c2ccc3c(n2)N(CCC/C=C\C4)CCO3)ccc1N1CCN(C)CC1 [Compound 8-2-2] | 13 |
| CN1Cc2cc(Nc3ncc4c(=O)n5n(c4n3)-c3ccc4c(n3)N(CCC/C=C\C5)C(=O)C(C)(C)O4)ccc2C2(CC2)C1 [Compound 7-1-1] | 12.9 |
| CC(C)N1CCC(n2ncc3cc(Nc4ncc5c(=O)n6n(c5n4)-c4ccc5c(n4)N(CCC/C=C\C6)C(=O)CO5)ccc32)CC1 [Compound 3-7-14] | 6.5 |
| COc1cc(Nc2ncc3c(=O)n4n(c3n2)-c2ccc3c(n2)N(CCCC#CC4)C(=O)CO3)ccc1N1CCN(C)CC1 [Compound 10-1-3] | 8.4 |
| CN1CCN(Cc2ccc(Nc3ncc4c(=O)n5n(c4n3)-c3ccc4c(n3)N(CCC/C=C\C5)C(=O)CO4)cc2)CC1 [Compound 3-3-6] | 24.8 |
| CN1Cc2cc(Nc3ncc4c(=O)n5n(c4n3)-c3cccc(n3)OCC/C=C\C5)ccc2C(C)(C)C1 [Compound 1-3-1] | 8.1 |
| O=C1COc2ccc3nc2N1CCC/C=C\Cn1c(=O)c2cnc(Nc4ccc(N5CCN6CCCC6C5)cc4)nc2n1-3 (stereo not shown) [Compound 3-3-10] | 8.8 |
| CN1Cc2cc(Nc3ncc4c(=O)n5n(c4n3)-c3cccc(n3)OCCCC/C=C\C5)ccc2C2(CC2)C1 [Compound 1-2-2] | 10.3 |
| CC1CN(c2ccc(Nc3ncc4c(=O)n5n(c4n3)-c3ccc4c(n3)N(CCC/C=C\C5)C(=O)CO4)cc2)CCN1C (stereo not shown) [Compound 3-3-3] | 5.7 |
| CN1CCN(C)c2ccc(Nc3ncc4c(=O)n5n(c4n3)-c3ccc4c(n3)N(CCC/C=C\C5)C(=O)CO4)cc2C1 [Compound 3-4-1] | 9.4 |
| CC(=O)N1CCC/C=C\Cn2c(=O)c3cnc(Nc4ccc5c(c4)CN(C)CC5(C)C)nc3n2-c2cccc1n2 [Compound 2-3-2] | 16.4 |
| CN1CCN(c2ccc(Nc3ncc4c(=O)n5n(c4n3)-c3cccc(n3)OCCC/C=C\C5)cc2)CC1 [Compound 1-1-2] | 32 |
| COc1cc(Nc2ncc3c(=O)n4n(c3n2)-c2ccc3c(n2)N(CCC/C=C\C4)C(=O)CC3)ccc1N1CCN(C)CC1 [Compound 5-1-1] | 7.5 |
| COc1cc(Nc2ncc3c(=O)n4n(c3n2)-c2ccc3c(n2)N(CCC#CC4)C(=O)CO3)ccc1N1CCN(C)CC1 [Compound 10-1-5] | 11.7 |
| CN1CCN(c2ccc(Nc3ncc4c(=O)n5n(c4n3)-c3cccc(n3)OCC/C=C\C5)cc2)CC1 [Compound 1-1-3] | 7.3 |
| CN1CCN(c2ccc(Nc3ncc4c(=O)n5n(c4n3)-c3cccc(n3)OCC/C=C\C5)cc2CO)CC1 [Compound 1-1-5] | 6.1 |
| COC(=O)N1CCC(n2ccc3cc(Nc4ncc5c(=O)n6n(c5n4)-c4ccc5c(n4)N(CCC/C=C\C6)C(=O)CO5)ccc32)CC1 [Compound 3-7-4] | 36.6 |
| CC(=O)N1CCCCC=CCn2c(=O)c3cnc(Nc4ccc(N5CCN(C)CC5)cc4)nc3n2-c2cccc1n2 [Compound 2-1-1] | 75.2 |
| CCN1Cc2cc(Nc3ncc4c(=O)n5n(c4n3)-c3ccc4c(n3)N(CCC/C=C\C5)C(=O)CO4)ccc2C2(CC2)C1 [Compound 3-2-5] | 7.7 |

Other lines, results leading:

| IC50 [nM] | SMILES |
| --- | --- |
| 30.2 | CN1CCN(c2ccc(Nc3ncc4c(=O)n5n(c4n3)-c3cccc(n3)OCCOC/C=C/C5)cc2)CC1 [Compound 1-1-4] |
| 155 | CN(C)CCn1ccc2cc(Nc3ncc4c(=O)n5n(c4n3)-c3cccc(n3)C(C)(O)CCC/C=C\C5)ccc21 (stereo not shown) [Compound 6-1-1] |
| 6.7 | CN1CCN(c2ccc(Nc3ncc4c(=O)n5n(c4n3)-c3cccc(n3)OCCCC/C=C/C5)cc2)CC1 [Compound 1-1-1] |
| 6.1 | CC(C)(C)OC(=O)N1Cc2cc(Nc3ncc4c(=O)n5n(c4n3)-c3ccc4c(n3)N(CCC/C=C\C5)C(=O)CO4)ccc2C(C)(C)C1 [Compound 3-5-2] |
| 9 | O=C1COc2ccc3nc2N1CCC/C=C\Cn1c(=O)c2cnc(Nc4ccc5c(c4)CN(CC(F)F)CC54CC4)nc2n1-3 [Compound 3-2-8] |
| 10.7 | CC(=O)N1CC/C=C\Cn2c(=O)c3cnc(Nc4ccc5c(c4)CN(C)CC5(C)C)nc3n2-c2cccc1n2 [Compound 2-3-1] |
| 6.8 | COc1cc(Nc2ncc3c(=O)n4n(c3n2)-c2cccc(n2)OCC/C=C\C4)ccc1N1CCN(C)CC1 [Compound 1-1-6] |
| 6.3 | Cc1cc(Nc2ncc3c(=O)n4n(c3n2)-c2ccc3c(n2)N(CCCC=CC4)C(=O)CO3)ccc1N1CCN(C)CC1 [Compound 3-3-9] |
| 7.6 | CN(C)CCn1ccc2cc(Nc3ncc4c(=O)n5n(c4n3)-c3ccc4c(n3)N(CCC/C=C\C5)C(=O)CO4)ccc21 [Compound 3-7-1] |
| 20.1 | CN1Cc2cc(Nc3ncc4c(=O)n5n(c4n3)-c3ccc4c(n3)N(CCO4)C(=O)CC/C=C\C5)ccc2C(C)(C)C1 [Compound 8-1-1] |
| 23.8 | CN1Cc2ccc(Nc3ncc4c(=O)n5n(c4n3)-c3cccc(n3)OCCOC/C=C/C5)cc2C(C)(C)C1 [Compound 1-3-2] |
| 11.6 | CN1Cc2cc(Nc3ncc4c(=O)n5n(c4n3)-c3ccc4c(n3)N(CCC/C=C\C5)CCO4)ccc2C2(CC2)C1 [Compound 8-2-1] |
| 5.1 | CN1Cc2cc(Nc3ncc4c(=O)n5n(c4n3)-c3ccc4c(c3)N(CCC/C=C\C5)C(=O)CO4)ccc2C2(CC2)C1 [Compound 4-1-1] |
| 4.8 | COc1cc(Nc2ncc3c(=O)n4n(c3n2)-c2ccc3c(n2)N(CCC/C=C\C4)C(=O)CO3)ccc1N1CCN(C)C(C)C1 (stereo not shown) [Compound 3-3-5] |
| 8.2 | CN1CCOc2ccc(Nc3ncc4c(=O)n5n(c4n3)-c3ccc4c(n3)N(CCC/C=C\C5)C(=O)CO4)cc2C1 [Compound 3-4-2] |
| 6.5 | COc1cc(Nc2ncc3c(=O)n4n(c3n2)-c2ccc3c(n2)N(CCC/C=C/C4)C(=O)CO3)ccc1N1CCN(C)CC1 [Compound 3-3-11] |
| 8.6 | CN1C[C@@H]2C[C@H]1CN2c1ccc(Nc2ncc3c(=O)n4n(c3n2)-c2ccc3c(n2)N(CCC/C=C\C4)C(=O)CO3)cc1 [Compound 3-3-4] |

tested on: Human osteosarcoma cell line MG63; assay: Cell proliferation assay (CCK-8 cell viability); type: cell-based; conditions: CCK-8, 72 hours incubation
Method: In the present disclosure, cell assays were used to assess the biological activity of the compound. Human osteosarcoma cell line MG63 (ATCC CRL-1427) was cultured in a 96-well plate of Dulbecco's Modified Eagle's medium, supplemented with 10% fetal bovine serum and 1% (v/v) L-glutamine, and the cultivation environment was 37° C. and 5% CO2. Compound concentrations ranged from 4.5 nM to 30 μM. The Wee1 inhibitor stock solution was dissolved in DMSO, added to the medium with an indicated concentration and incubated for 72 hours. Negative control cells were only treated with vehicle. In some assays, a known Wee1 inhibitor was added as a positive control. Cell viability was measured using a Cell Counting Kit-8 (CCK-8, Sigma-Aldrich) under the instruction of the product specification. The data was analyzed using Graphpad software to obtain a fitted curve of IC50 values against the compounds.

| IC50 [nM] | SMILES |
| --- | --- |
| 2400 | CN1CCN(c2ccc(Nc3ncc4c(=O)n5n(c4n3)-c3cccc(n3)OCCCC/C=C/C5)cc2)CC1 [Compound 1-1-1] |
| 211 | CC(C)N1CCC(n2ccc3cc(Nc4ncc5c(=O)n6n(c5n4)-c4ccc5c(n4)N(CCC/C=C\C6)C(=O)CO5)ccc32)CC1 [Compound 3-7-15] |
| 327 | CC(C)(C)OC(=O)N1Cc2cc(Nc3ncc4c(=O)n5n(c4n3)-c3ccc4c(n3)N(CCC/C=C\C5)C(=O)CO4)ccc2C(C)(C)C1 [Compound 3-5-2] |

same assay, conditions: Homo sapiens, MG-63, 72 h, CCK-8, 72 hours incubation

| IC50 [nM] | SMILES |
| --- | --- |
| 785 | C=CCn1c(=O)c2cnc(Nc3ccc(N4CCN(C)CC4)cc3)nc2n1-c1cccc(C(C)(C)O)n1 [AZD1775, 2-allyl-1-(6-(2-hydroxypropan-2-yl)pyridin-2-yl)-6-((4-(4-methylpiperazin-1-yl)phenyl)amino)-1H-pyrazolo[3,4-d]pyrimidin-3 (2H)-one, reference compound] |
| 193 | CS(=O)(=O)CCN1CCC(n2ccc3cc(Nc4ncc5c(=O)n6n(c5n4)-c4ccc5c(n4)N(CCC/C=C\C6)C(=O)CO5)ccc32)CC1 [Compound 3-7-9] |
| 160 | CN1CCN(c2ccc3cc(Nc4ncc5c(=O)n6n(c5n4)-c4ccc5c(n4)N(CCC/C=C\C6)C(=O)CO5)ccc3c2)CC1 [Compound 3-8-1] |
| 270 | CN1CCN(c2cc(Nc3ncc4c(=O)n5n(c4n3)-c3ccc4c(n3)N(CCC/C=C\C5)C(=O)CO4)cc3ccoc23)CC1 [Compound 3-7-17] |
